This is an account of results in ChEMBL document CHEMBL6103565, “Current strategies in design and synthesis of antifungals hybrid and chimeric diazine derivatives” (Bioorg Med Chem, 2025).

One may read the MIC as the smallest concentration in the dilution series that meets the test's criterion for growth inhibition. For orientation: EC50 means the concentration at which the effect is half-maximal. A high value points to a less potent agent. As usually defined, the inhibition is the percentage by which the read-out fell short of the control.

One assay deals with Cryptococcus neoformans. Description: Antifungal activity against Cryptococcus neoformans assessed as reduction in fungal growth incubated for 24 hrs by broth microdilution method. The assay is classed as functional. On the technique in general: Dilution methods test growth across graded concentrations, often in twofold steps.
Assay [1] has as its system Candida albicans. Nature of the assay: Antifungal activity against Candida albicans MTCC 227 by disc diffusion method. The assay is classed as functional, organism-based.
The subject of assay [2] is Aspergillus niger. Description: Antifungal activity against Aspergillus niger MTCC 282 by disc diffusion method. The assay is classed as functional, organism-based. In general terms: A growth-free zone around the sample is the usual read-out of agar diffusion tests.
For the next assay, the system named is Aspergillus flavus. Nature of the assay: Antimicrobial activity against Aspergillus flavus assessed as zone of inhibition. The assay is classed as functional.
Another assay concerns Trichophyton rubrum. Nature of the assay: Antifungal activity against Trichophyton rubrum assessed as diameter of zone inhibition. The assay is classed as functional.
The test system of assay [3] is Aspergillus niger. Description: Antifungal activity against Aspergillus niger assessed as zone of inhibition by disc diffusion method. The assay is classed as functional.
The next assay relates to Candida tropicalis. Description: Antifungal activity against Candida tropicalis assessed as zone of inhibition by disc diffusion method. The assay is classed as functional.
A further assay relates to Botryosphaeria dothidea. Nature of the assay: Antifungal activity against Botryosphaeria dothidea assessed as reduction in fungal growth at 50 ug/ml relative to control. The assay is classed as functional.
Assay [4] deals with Candida albicans. Nature of the assay: Antifungal activity against Candida albicans NRRL-Y477 assessed as zone of inhibition by disc diffusion method. The assay is classed as functional.
For the next assay, the system named is Botrytis cinerea. Nature of the assay: Antifungal activity against Botrytis cinerea assessed as reduction in fungal growth at 50 ug/ml relative to control. The assay is classed as functional.
The subject of another assay is Aspergillus fumigatus. Nature of the assay: Antifungal activity against Aspergillus fumigatus assessed as zone of inhibition. The assay is classed as functional.
Assay [5] deals with Syncephalastrum racemosum. Description: Antifungal activity against Syncephalastrum racemosum assessed as zone of inhibition. The assay is classed as functional.
Assay [6] relates to Candida albicans. Description: Antifungal activity against Candida albicans ATCC 10231 assessed as zone of inhibition incubated for 24 hrs by disc diffusion method. The assay is classed as functional.
Assay [7] has as its system Candida albicans. Nature of the assay: Antifungal activity against Candida albicans. The assay is classed as functional.

Structures are written as SMILES. Values after ≈ are worked out from the molar mass of the structure shown.

With `Cc1nc(NC(=O)c2cc(C(F)(F)F)cc(C(F)(F)F)c2)c2c(C(F)(F)F)cc(-c3ccccc3)nc2n1`, the minimum inhibitory concentration (MIC) in the assay with Cryptococcus neoformans stood at 12.5 µg/mL (≈ 23 µM).
Take `CC(=O)N1N=C(C2=C(C)NC(=O)NC2c2ccc(F)cc2)OC1c1ccccc1` (stereo unspecified): the concentration for a half-maximal effect (EC50) in the assay on Candida albicans [1] and in the assay with Aspergillus niger [2] was 0.15 µg/mL (≈ 0.38 µM) throughout.
As for `O=C1CSC(c2ccccc2)N1c1nc(-c2ccccc2)cc(-c2ccccn2)n1` (stereo unspecified), in the assay on Aspergillus flavus, the “inhibition zone (IZ)” value was 10 mm.
With `Cc1c(-c2ccc(Br)cc2)nnc(O)c1Br`, in the assay on Trichophyton rubrum, the “inhibition zone (IZ)” value is on record as 14 mm.
Regarding `COc1ccc(C2C3C(C)=NN(c4ccccc4)C3N=C3SCCN32)cc1` (stereo unspecified), the “inhibition zone (IZ)” value in the assay with Aspergillus niger [3] is 24 mm; with Candida tropicalis, 26 mm.
Consider `O=C1CNC(c2ccc(Cl)cc2)N1c1nc(-c2ccc(Cl)cc2)cc(-c2ccccn2)n1` (stereo unspecified), for which, in the assay with Aspergillus flavus, the “inhibition zone (IZ)” value was determined as 10 mm.
Take `Oc1nnc(-c2ccccc2Cl)cc1Br`: the “inhibition zone (IZ)” value in the assay on Trichophyton rubrum stood at 14 mm.
Turning to `NC(=S)NNC(=O)c1c[nH]c2ncnn2c1=O`, the minimum inhibitory concentration (MIC) in the assay on Cryptococcus neoformans came to 25 µg/mL (≈ 98.7 µM).
With `Cc1nc(Oc2ccc(C(=O)Nc3ccc(F)cc3)cc2)cc(C(F)(F)F)n1`, in the assay on Botryosphaeria dothidea, the inhibition at 50 µg/mL is 85.9%.
For the compound `CCOC(=O)c1c(C)nc2sc3c(SCC(=O)Nc4ccc(C)cc4)ncnc3c2c1-c1cccs1`, the “inhibition zone (IZ)” value in the assay on Aspergillus niger [3] is listed as 24 mm; in the assay on Candida albicans [4] it was 25 mm.
As for `O=C(Nc1ccc(F)cc1)c1ccc(Oc2cc(C(F)(F)F)ncn2)cc1`, the inhibition at 50 µg/mL in the assay with Botryosphaeria dothidea was determined as 89.8%; in the assay with Botrytis cinerea, 90.3%.
`Nc1nc(=S)[nH]c(N)c1C1=NC2=Nc3ccccc3C2=N1`: the “inhibition zone (IZ)” value in the assay with Aspergillus flavus worked out at 14 mm.
With `Oc1nnc(-c2ccc(Cl)cc2)cc1Br`, the “inhibition zone (IZ)” value in the assay with Trichophyton rubrum turned out to be 14 mm.
With `CCc1nnc2c(Nc3ccc(C4=NN(C(N)=O)C(c5ccc(Cl)cc5)C4)cc3)nc3ccccc3n12` (stereo unspecified), the “inhibition zone (IZ)” value is listed as 22 mm in the assay with Aspergillus fumigatus and 21 mm in assay [5].
As to `CCc1ccccc1/N=N/c1c(N)nc2c(/N=N/c3ccccc3CC)cnn2c1N`, in the assay with Candida albicans [6], the “inhibition zone (IZ)” value came to 21 mm.
With `CC(=O)N1N=C(C2=C(C)NC(=O)NC2c2ccc(F)cc2)OC1c1ccc(Cl)cc1` (stereo unspecified), the EC50 in the assay with Candida albicans [1] and in the assay with Aspergillus niger [2] was 0.2 µg/mL (≈ 0.466 µM) in each case.
With `CCOc1ccccc1/N=N/c1c(N)nc2c(/N=N/c3ccccc3OCC)cnn2c1N`, the “inhibition zone (IZ)” value with Candida albicans [6] came out at 21 mm.
As to `CCc1nnc2c(Nc3ccc(C(=O)/C=C/c4ccc(OC)cc4)cc3)nc3ccccc3n12`, the “inhibition zone (IZ)” value in the assay on Aspergillus fumigatus was found to be 21 mm.
Consider `Nc1ncc(C2=NC3=Nc4ccccc4C3=N2)c(N)n1`, for which, in the assay with Aspergillus flavus, the “inhibition zone (IZ)” value came out at 18 mm.
Take `CN(C)c1ccc(-c2cc(Br)c(O)nn2)cc1`: the “inhibition zone (IZ)” value in the assay with Trichophyton rubrum was 15 mm.
For the compound `CC1=NN(c2ccccc2)C2N=C3SCCN3C(c3ccc(O)cc3)C12` (stereo unspecified), the “inhibition zone (IZ)” value in the assay on Aspergillus niger [3] was found to be 24 mm; in the assay with Candida tropicalis, 26 mm.
`Cc1nc(NC(=O)c2cc3ccccc3o2)c2c(C(F)(F)F)cc(-c3ccccc3)nc2n1`: the MIC with Cryptococcus neoformans was found to be 12.5 µg/mL (≈ 27.9 µM).
Regarding `CCc1nnc2c(Nc3ccc(C4=NN(c5ccccc5)C(c5ccc(Cl)cc5)C4)cc3)nc3ccccc3n12` (stereo unspecified), the “inhibition zone (IZ)” value in the assay with Aspergillus fumigatus was found to be 21 mm.
As for `O=C(CSc1nc2sc3c(c2c(=O)n1-c1ccc(Cl)cc1)CCCC3)Nc1nc(-c2cccc(Br)c2)cs1`, the “inhibition zone (IZ)” value in the assay with Candida albicans [4] is 18 mm.
On to `CC(=O)N1N=C(C2=C(C)NC(=O)NC2c2ccc(F)cc2)OC1c1cccc([N+](=O)[O-])c1` (stereo unspecified), for which the EC50 with Candida albicans [1] and in the assay with Aspergillus niger [2] was 0.16 µg/mL (≈ 0.364 µM) in each case.
For the compound `CC1=NN(c2ccccc2)C2N=C3SCCN3C(c3ccc(Cl)cc3)C12` (stereo unspecified), the “inhibition zone (IZ)” value in the assay with Aspergillus niger [3] worked out at 24 mm; in the assay with Candida tropicalis, 26 mm.
With `CCc1ccccc1/N=N/c1c(N)nn2c(-c3ccc(Cl)cc3)cc(-c3ccccc3)nc12`, in the assay with Candida albicans [6], the “inhibition zone (IZ)” value is reported as 19 mm.
For `CCc1nnc2c(Nc3ccc(C4=NNC(c5ccc(Cl)cc5)C4)cc3)nc3ccccc3n12` (stereo unspecified), in the assay with Aspergillus fumigatus, the “inhibition zone (IZ)” value is 22 mm.
In turn, `COC(=O)Nc1nc2ccccc2[nH]1` [CARBENDAZIM] had an EC50 in the assay with Candida albicans [1] of 0.21 µg/mL (≈ 1.1 µM).
Consider `COC1=CC(=O)C[C@@H](C)[C@]12Oc1c(Cl)c(OC)cc(OC)c1C2=O` [GRISEOFULVIN], for which it took 500 µg/mL (≈ 1420 µM) to inhibit growth in the assay with Candida albicans [7] (MIC). For the same compound, the figures for the “inhibition zone (IZ)” value with Aspergillus niger [3] and in the assay on Candida tropicalis were 22 mm and 25 mm, respectively.
